Here are results for two compounds from ChEMBL document CHEMBL4196029, “New MD2 inhibitors derived from curcumin with improved anti-inflammatory activity” (Eur J Med Chem, 2018).

Activity calls are given as the source filed them. The calls are words filed in the database; no cut-off is given here.

Data set [1] deals with Peritoneal macrophage. The data set is described as follows: Anti-inflammatory activity in C57BL/6 mouse primary peritoneal macrophages assessed as inhibition of LPS-induced IL-6 secretion at 1 to 10 uM preincubated for 30 mins followed by LPS addition measured after 24 hrs by ELISA. In kind it is functional, cell-based.
Data set [2] concerns the target Interleukin-1 receptor-associated kinase 1 (Homo sapiens) (UniProt P51617). The data set is described as follows: Inhibition of recombinant human N-terminal GST-tagged IRAK1 (194 to 712 residues) expressed in baculovirus expression system at 10 uM after 1 hr by caliper mobility shift assay relative to control.
The target in data set [3] is T1, Inhibitor of nuclear factor kappa-B kinase subunit beta (Homo sapiens) (UniProt O14920).
T1 sequence (whole entry): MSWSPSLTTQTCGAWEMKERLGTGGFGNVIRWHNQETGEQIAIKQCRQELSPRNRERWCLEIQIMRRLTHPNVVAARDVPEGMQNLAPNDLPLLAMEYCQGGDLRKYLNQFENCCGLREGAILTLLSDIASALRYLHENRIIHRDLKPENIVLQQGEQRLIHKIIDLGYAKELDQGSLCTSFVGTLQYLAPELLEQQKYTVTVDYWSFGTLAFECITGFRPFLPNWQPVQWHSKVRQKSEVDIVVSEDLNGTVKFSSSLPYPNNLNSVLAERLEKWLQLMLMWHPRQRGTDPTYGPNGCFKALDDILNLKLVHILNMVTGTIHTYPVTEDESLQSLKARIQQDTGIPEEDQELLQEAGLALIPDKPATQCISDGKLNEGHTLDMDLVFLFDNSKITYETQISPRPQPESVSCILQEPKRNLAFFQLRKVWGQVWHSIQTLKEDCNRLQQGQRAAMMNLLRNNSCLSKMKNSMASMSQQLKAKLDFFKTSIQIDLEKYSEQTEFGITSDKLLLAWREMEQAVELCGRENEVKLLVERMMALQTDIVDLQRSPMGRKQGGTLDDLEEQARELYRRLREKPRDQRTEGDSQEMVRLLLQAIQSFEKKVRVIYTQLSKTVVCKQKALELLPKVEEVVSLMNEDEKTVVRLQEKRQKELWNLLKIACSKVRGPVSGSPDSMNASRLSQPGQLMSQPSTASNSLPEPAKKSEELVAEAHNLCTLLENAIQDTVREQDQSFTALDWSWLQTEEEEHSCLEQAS
The data set is described as follows: Inhibition of recombinant human N-terminal His-tagged IKKbeta (1 to 662 residues) expressed in baculovirus expression system at 1 uM after 1 hr by caliper mobility shift assay relative to control.

For data set [4], the system named is RAW264.7. Put plainly: Inhibition of MD2 in […] cells harboring NF-kB-luc assessed as inhibition of LPS-induced TLR4 activation-mediated NF-kB transcriptional activity at 2.5 uM preincubated with cells followed by LPS addition measured after 6 hrs by luciferase reporter gene assay. In kind it is cell-based.
The test system of data set [5] is Peritoneal macrophage. The data set is described as follows: Inhibition of LPS-induced IL-1beta mRNA expression in C57BL/6 mouse primary peritoneal macrophages at 10 uM preincubated for 30 mins followed by LPS addition measured after 24 hrs by qRT-PCR analysis. In kind it is functional, cell-based.
Data set [6] has as its system Peritoneal macrophage. The data set is described as follows: Anti-inflammatory activity in C57BL/6 mouse primary peritoneal macrophages assessed as inhibition of LPS-induced IL-6 secretion at 10 uM preincubated for 30 mins followed by LPS addition measured after 24 hrs by ELISA relative to control. In kind it is functional. Particulars: C57BL/6, Peritoneal macrophage.

Data set [7] concerns Rattus norvegicus. The data set is described as follows: Anti-inflammatory activity in Sprague-Dawley rat model of LPS-induced acute lung injury assessed as reduction in MCP1 mRNA level in lungs at 20 mg/kg, po administered daily for 1 week followed by LPS addition at 30 mins post last dose measured after 6 hrs by qRT-PCR method. The data set is classed as functional, organism-based.

In data set [8] the test system is RAW264.7. The data set is described as follows: Binding affinity to MD2 in […] cells assessed as inhibition of LPS-induced TLR4-MD2 complex dimerization at 10 uM by co-immunoprecipitation assay. In kind it is cell-based.
Data set [9] in a line: Chemical stability in pH 7.4 phosphate buffer at 20 uM measured at 5 mins time intervals for 25 mins by UV absorbance spectroscopic method. In kind it is physicochemical. Particulars: pH 7.4, 25 min.
In data set [10] the target is Mitogen-activated protein kinase 1 (Homo sapiens) (UniProt P28482). Put plainly: Inhibition of recombinant human full length N-terminal GST-tagged ERK2 (1 to 360 end residues) expressed in Escherichia coli at 0.1 uM after 1 hr by caliper mobility shift assay relative to control.
Mitogen-activated protein kinase 1 (Homo sapiens), sequence (P28482 whole entry): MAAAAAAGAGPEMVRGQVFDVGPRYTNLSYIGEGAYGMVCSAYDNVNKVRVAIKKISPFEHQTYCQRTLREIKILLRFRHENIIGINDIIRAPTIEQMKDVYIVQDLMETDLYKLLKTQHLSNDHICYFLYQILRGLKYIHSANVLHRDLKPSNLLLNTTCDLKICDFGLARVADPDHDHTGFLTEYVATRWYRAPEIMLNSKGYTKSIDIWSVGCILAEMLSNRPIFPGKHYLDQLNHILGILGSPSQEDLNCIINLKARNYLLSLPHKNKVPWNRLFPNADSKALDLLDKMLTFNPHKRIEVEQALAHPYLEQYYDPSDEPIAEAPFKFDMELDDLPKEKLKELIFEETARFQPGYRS
Data set [11] has as its system Peritoneal macrophage. Put plainly: Anti-inflammatory activity in C57BL/6 mouse primary peritoneal macrophages assessed as inhibition of LPS-induced TNFalpha secretion at 1 to 10 uM preincubated for 30 mins followed by LPS addition measured after 24 hrs by ELISA. In kind it is functional, cell-based. On the technique in general: An ELISA detects its analyte on a solid surface through an enzyme-linked reagent.

Data set [12] relates to Peritoneal macrophage. The data set is described as follows: Inhibition of LPS-induced COX2 mRNA expression in C57BL/6 mouse primary peritoneal macrophages at 10 uM preincubated for 30 mins followed by LPS addition measured after 24 hrs by qRT-PCR analysis. In kind it is functional, cell-based.
Data set [13] concerns Peritoneal macrophage. Put plainly: Anti-inflammatory activity in C57BL/6 mouse primary peritoneal macrophages assessed as inhibition of LPS-induced TNFalpha secretion at 10 uM preincubated for 30 mins followed by LPS addition measured after 24 hrs by ELISA relative to control. In kind it is functional. Particulars: C57BL/6, Peritoneal macrophage.
Data set [14] concerns Peritoneal macrophage. Put plainly: Anti-inflammatory activity in C57BL/6 mouse primary peritoneal macrophages assessed as inhibition of LPS-induced TNFalpha secretion at 5 uM preincubated for 30 mins followed by LPS addition measured after 24 hrs by ELISA relative to control. The data set is classed as functional. Particulars: C57BL/6, Peritoneal macrophage.
Data set [15] concerns Peritoneal macrophage. Put plainly: Inhibition of LPS-induced IL-6 mRNA expression in C57BL/6 mouse primary peritoneal macrophages at 10 uM preincubated for 30 mins followed by LPS addition measured after 24 hrs by qRT-PCR analysis. In kind it is functional, cell-based. (In general: Quantitative PCR measures a nucleic acid by following its amplification.)
Data set [16] deals with Mitogen-activated protein kinase 1 (Homo sapiens) (UniProt P28482). The data set is described as follows: Inhibition of recombinant human full length N-terminal GST-tagged ERK2 (1 to 360 end residues) expressed in Escherichia coli at 10 uM after 1 hr by caliper mobility shift assay relative to control.
Data set [17] deals with Rattus norvegicus. Put plainly: Anti-inflammatory activity in Sprague-Dawley rat model of LPS-induced acute lung injury assessed as reduction in leukocytic extravasation in lungs by measuring number of cells in BALF at 20 mg/kg, po administered daily for 1 week followed by LPS addition at 30 mins post last dose measured after 6 hrs by Wright-Giemsa staining based light microscopic assay. In kind it is functional, organism-based.

For data set [18], the system named is Peritoneal macrophage. Put plainly: Inhibition of LPS-induced TNFalpha mRNA expression in C57BL/6 mouse primary peritoneal macrophages at 10 uM preincubated for 30 mins followed by LPS addition measured after 24 hrs by qRT-PCR analysis. The data set is classed as functional, cell-based.
Data set [19] deals with T1, Inhibitor of nuclear factor kappa-B kinase subunit beta (Homo sapiens). The data set is described as follows: Inhibition of recombinant human N-terminal His-tagged IKKbeta (1 to 662 residues) expressed in baculovirus expression system at 0.1 uM after 1 hr by caliper mobility shift assay relative to control.
The target is the same in data set [20]. The data set is described as follows: Inhibition of recombinant human N-terminal His-tagged IKKbeta (1 to 662 residues) expressed in baculovirus expression system at 10 uM after 1 hr by caliper mobility shift assay relative to control.
In data set [21] the target is Interleukin-1 receptor-associated kinase 1 (Homo sapiens) (UniProt P51617). The data set is described as follows: Inhibition of recombinant human N-terminal GST-tagged IRAK1 (194 to 712 residues) expressed in baculovirus expression system at 0.1 uM after 1 hr by caliper mobility shift assay relative to control.
Interleukin-1 receptor-associated kinase 1 (Homo sapiens), sequence (P51617 whole entry, looked up, the tested form may be a part): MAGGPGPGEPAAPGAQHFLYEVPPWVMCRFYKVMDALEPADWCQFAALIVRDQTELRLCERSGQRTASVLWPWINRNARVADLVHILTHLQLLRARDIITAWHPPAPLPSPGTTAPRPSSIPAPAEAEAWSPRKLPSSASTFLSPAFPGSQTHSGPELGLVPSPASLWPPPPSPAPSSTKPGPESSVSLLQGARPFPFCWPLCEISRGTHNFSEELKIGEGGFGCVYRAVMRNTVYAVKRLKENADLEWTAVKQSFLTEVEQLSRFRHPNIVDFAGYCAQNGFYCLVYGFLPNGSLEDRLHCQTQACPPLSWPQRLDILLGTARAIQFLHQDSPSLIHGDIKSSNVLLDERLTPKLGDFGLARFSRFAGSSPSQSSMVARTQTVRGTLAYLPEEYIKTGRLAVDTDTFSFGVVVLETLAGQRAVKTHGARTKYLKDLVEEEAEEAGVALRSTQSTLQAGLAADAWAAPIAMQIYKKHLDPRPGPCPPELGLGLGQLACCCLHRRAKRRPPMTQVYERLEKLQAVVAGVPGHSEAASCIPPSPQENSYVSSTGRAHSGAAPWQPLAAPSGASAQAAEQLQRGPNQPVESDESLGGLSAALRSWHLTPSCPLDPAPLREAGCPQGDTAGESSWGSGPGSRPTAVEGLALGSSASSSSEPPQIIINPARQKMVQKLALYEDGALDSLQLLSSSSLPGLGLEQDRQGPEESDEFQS

For orientation: inhibition means the relative decrease from the control value, in per cent. On to `COc1cc(/C=C2\CN(C)C/C(=C\c3cc(OC)c(OC)c(OC)c3)C2=O)cc(OC)c1OC`, for which the inhibition entry in the data set on Peritoneal macrophage [1], in the data set on RAW264.7 [4], in the data set with Peritoneal macrophage [5], in the data set with RAW264.7 [8], in the data set on Peritoneal macrophage [11] and with Peritoneal macrophage [12] was “Active” throughout. Also, the inhibition entry in the data set with Peritoneal macrophage [15] and in the data set on Peritoneal macrophage [18] was “Active” each time. The inhibition turned out to be 0.5% in data set [2]; 6.3% in data set [3]; 11.7% in data set [10]; 8.7% in [16]; 21.1% in [19]; 12.8% in data set [20]. In addition, the inhibition in [21] was 7.7%. Also, the inhibition at 10 µM in the data set with Peritoneal macrophage [6] and with Peritoneal macrophage [13] was over 90% throughout. For the same compound, the outcome in the data set with Rattus norvegicus [7] and in the data set with Rattus norvegicus [17] was Active. In [9], the Stability entry is reported as “Stable”. In the data set with Peritoneal macrophage [14], the inhibition at 5 µM is over 50%.

Regarding `COc1cc(/C=C2\COC/C(=C\c3cc(OC)c(OC)c(OC)c3)C2=O)cc(OC)c1OC`, the inhibition result with Peritoneal macrophage [1], in the data set with RAW264.7 [4], with Peritoneal macrophage [5], with RAW264.7 [8], with Peritoneal macrophage [11] and in the data set with Peritoneal macrophage [12] was “Active” in each case. Also, the inhibition result with Peritoneal macrophage [15] and with Peritoneal macrophage [18] was “Active” in each case. Besides, the inhibition in [2] came to 3.6%; in data set [3], 13.3%; in data set [10], 21.3%; in data set [16], 7.4%; in [19], 15.7%; in data set [20] it was 7.9%. In [21], the inhibition was found to be 15.9%. Moreover, the inhibition at 10 µM with Peritoneal macrophage [6] and in the data set on Peritoneal macrophage [13] was over 90% in each case. The result in the data set on Rattus norvegicus [7] and with Rattus norvegicus [17] was Active. Further, the Stability result in data set [9] is listed as “Stable”. In addition, the inhibition at 5 µM in the data set with Peritoneal macrophage [14] was over 50%.
